Experimental data from US11083714B2, “Selective anti-cancer agent effective for prevention and treatment” (Molecular International Research, Inc., priority 2018, dated 2021).
Entries after “also recorded” stand apart in the source; their conditions may differ.

Legend:
HT-29 tumors = assay: Subcutaneous HT-29 colon cancer xenografts; assay type: in vivo; details: for toxicity and deaths of tumor-bearing mice: mouse, in vivo; for TUNEL staining of tumor sections: tumors removed after treatment
Protocol: FIG. 30. Effect of de-ethylflavopereirine on HT-29 colon cancer tumor volume. Nude mice with subcutaneous xenografts of human HT-29 colon cancer cells were grouped as untreated control (squares), administered compound 13-9-1 (triangles), or administered IFL as conventional chemotherapy regimen (circles). IFL is a combination of irinotecan, fluorouracil, and leucovorin often used for treatment of colorectal cancer. […] Animals were treated for two and a half weeks.
FIGS. 31 to 33 show TUNEL staining of HT-29 tumors removed from untreated mice (control) in FIG. 31, mice administered de-ethylflavopereirine in FIG. 32, or mice administered IFL in FIG. 33. […] After treatments were concluded, tumors were removed from the animals, fixed, thin sectioned, and stained by the TUNEL method to identify cells undergoing apoptosis. In FIG. 31, the borders of tumors from control animals show intact tissue and the absence of TUNEL staining. […] The color images clearly distinguish the dark purple/brown color of cells undergoing apoptotis from the blue color of intact tumor cells.
In this example, the anti-tumor activity of de-ethylflavopereirine was compared with the activity of IFL (a combination of irinotecan, fluorouracil, and leucovorin). IFL has been routinely used in the treatment of colorectal cancer, but is associated with significant toxicity. The toxicity is so severe that some have encapsulated irinotecan in liposomes to reduce negative side effects.
A comparison of the direct impact of de-ethylflavopereirine and IFL on tumors is depicted in FIGS. 32 and 33. Terminal deoxynucleotidyl transferase dUTP nick-end labeling (TUNEL) is a method for detecting DNA fragmentation by labeling the 3′-hydroxyl termini in the double-strand DNA breaks generated during apoptosis. Tumor sections from the two groups and an untreated control group were immunostained by the TUNEL method to specifically identify cells undergoing apoptosis.

[1] = test system: two human breast cancer cell lines; assay: Proliferation of breast cancer cell lines; assay type: cell-based
Protocol: (§1) The primary goal of synthesizing de-ethylflavopereirine (compound 13-9-1) was to generate a different compound that still retains the anti-cancer cell activity of flavopereirine (compound 13-7-2). Comparison of the effects of the two compounds on proliferation of a variety of cancer cells confirmed that this goal was achieved. For example, the effect of de-ethylflavopereirine on two human breast cancer cell lines and two human prostate cancer cell lines were analyzed.

[2] = test system: glioblastoma cell lines U-87MG, DBTRG-05MG, A172; assay: Glioblastoma cell viability and proliferation assay (ATP); assay type: cell-based; details: 3 nM to 30 uM, 72 hr
Protocol: FIG. 9. Glioblastoma in vitro cell viability and proliferation assay after treatment with de-ethylflavopereirine. Glioblastoma cell lines U-87MG, DBTRG-05MG, A172, and AM-38 were tested. Temozolomide, an oral chemotherapy drug known to treat some brain cancers, was used as a control. The concentrations of temozolomide (circles) or compound 13-9-1 (squares) used were 3 nM, 10 nM, 30 nM, 100 nM, 1 uM, 3 uM, 10 uM, and 30 uM. Each of the cell lines was treated with de-ethylflavopereirine for 72 hr before measuring cytotoxicity and inhibition of cell proliferation. Number of viable cells in culture based on quantitation of ATP. IC50 was determined as indicated below each graph.
The dose-response curves for the anti-brain cancer drug temozolomide are shown for comparison.

[3] = mouse, in vivo
Protocol: To estimate the maximum tolerated dose of compounds 13-7-2 and 13-9-1 in mice, both compounds were dissolved in PBS and given to SCID mice by oral gavage.
Compound 13-7-2 was administered at a dose of 100 mg/kg, 150 mg/kg, or 200 mg/kg. Each dose group consisted of three mice.
Compound 13-9-1 was administered at a dose of 100 mg/kg, 150 mg/kg, or 200 mg/kg by oral gavage (three mice per dose group).
In a separate dose finding/toxicity test with compound 13-9-1, three mice received escalating doses of 50 mg/kg/day for 3 days, 100 mg/kg/day for 7 days, 200 mg/kg/day for 7 days, and 300 mg/kg/day for 3 days, given by oral gavage. Mice were monitored closely for toxic signs.

OVCAR-5, SHIN-3, OVCAR-8 = assay: MTT cell viability, ovarian cancer cell lines; assay type: cell-based, human; details: 48 hr
Protocol: FIG. 7. Dose-response curves for cell viability of human ovarian cancer cell lines OVCAR-5 (triangles), SHIN-3 (squares), and OVCAR-8 (lozenges) exposed to de-ethylflavopereirine. Cells were cultured in the presence of increasing concentrations of the compound for 48 hr and cell viability was determined by MTT assay. MRC-5 (crosses), an immortalized, normal human […] cell line, was used as a control.
De-ethylflavopereirine was tested for its activity against ovarian, pancreatic, brain, and colon cancer cell lines. […] Cytotoxicity is assayed by reducing a yellow tetrazolium dye, 3-(4,5-dimethylthiazol-2-yl)-2,5-diphenyltetrazolium bromide (MTT), to insoluble purple formazan. The MTT assay is a colorimetric assay for determining the number of viable cells.

RPWE-1 = assay: Cell Proliferation (anti-cancer), RPWE-1; assay type: cell-based, human
Protocol: as §1

[4] = Plasma concentrations after intravenous or oral administration; assay type: in vivo, mice
Protocol: FIG. 15. Plasma concentrations of de-ethylflavopereirine following intravenous or oral administration: intravenous at 20 mg/kg (lozenges) having a peak at approximately 2 hours, oral at 100 mg/kg (squares), or oral at 200 mg/kg (triangles) having a peak at approximately 4 hours.
Oral administration was chosen for the mouse experiments because administration is simplified by avoiding the need for tail vein injections.

[5] = Alcohol-induced chronic pancreatitis model; assay type: in vivo; details: mice given ethanol and compound in the daily diet
Excerpt: FIG. 29. Effects of de-ethylflavopereirine in a mice model of alcohol-induced chronic pancreatitis. Paraffin sections of the pancreas were stained with hematoxylin and eosin. […] This tissue protection was quantitated with an injury score (FIG. 29B). Ly6G was elevated four-fold in the pancreas of mice given ethanol while the number of neutrophils was not elevated in mice given ethanol and compound 13-9-1 (FIG. 29C).
Daily administration of ethanol to mice was followed by a binge of ethanol administration, a regimen relevant to human consumption. In the experimental group, de-ethylflavopereirine was included in the daily diet throughout the course of the experiment. There were two control groups: animals that were given no alcohol (negative control) and animals given alcohol without receiving the compound 13-9-1 (positive control). Following 10 days of alcohol treatment, the animals were gavaged with alcohol for 8 hours then euthanized, and their pancreatic tissues were collected. Pancreatic tissue sections were analyzed for histology and isolated RNA was used for quantitative PCR.

[6] = listed as de-ethylflavopereirine

**Q.** Which “toxicity and deaths of tumor-bearing mice” value (HT-29 tumors) does the source give for `c1ccc2c(c1)[nH]c1c2cc[n+]2ccccc12` [Compound 13-9-1, 12H-indolo[2,3-a]quinolizin-5-ium] here?
**A.** The value was “did not have toxic effects on the mice”.

**Q.** What about the “toxicity and deaths of tumor-bearing mice” value (HT-29 tumors; nude, 2.5 weeks) of the same molecule?
**A.** Its value is “No animals treated with compound 13-9-1 died”.

**Q.** What about the HT-29 tumor volume (HT-29 tumors; treated for two and a half weeks) of the same molecule?
**A.** Its HT-29 tumor volume is “reduced HT-29 tumor volumes”.

**Q.** And the “TUNEL staining of tumor sections” value (HT-29 tumors)?
**A.** The value was “apoptosis in zones near the periphery of the tumors”.

**Q.** And the “TUNEL staining of tumor sections” value (HT-29 tumors; [6])?
**A.** Its value is “cells on the periphery were undergoing apoptosis”.

**Q.** And the “IC50 compared with flavopereirine” value [1]?
**A.** The value was “same IC50s”.

**Q.** What about the glioblastoma cell viability [2] of the same molecule?
**A.** The glioblastoma cell viability was “dose-dependent decrease in glioblastoma cell viability”.

**Q.** What about the “tolerated dose, oral administration” value ([3]; SCID) of the same molecule?
**A.** The value was ≥ 300 mg/kg.

**Q.** What about the deaths ([3]; SCID, po, 200 mg/kg, 48 hr) of the same molecule?
**A.** The deaths was “One mouse in the 200 mg/kg group died 15 min after the administration of the compound (apparently due to trauma caused by oral gavage)”.

**Q.** What about the toxic signs ([3]; po, 50 mg/kg/day) of the same molecule?
**A.** The toxic signs was “No abnormality was observed”.

**Q.** What about the cell viability (OVCAR-5, SHIN-3, OVCAR-8) of the same molecule?
**A.** The cell viability was “dose-dependent decrease in cancer cell viability”.

**Q.** What about the “Growth Inhibition” value (RPWE-1) of the same molecule?
**A.** The value was “Yes”.

**Q.** What about the IC50 (RPWE-1; Homo sapiens, after any period of treatment, read-out: Minimum Dose (IC50) needed to decrease growth 50% or greater versus control) of the same molecule?
**A.** Its IC50 is 5 µM.

**Q.** What about the “time of peak plasma concentration” value ([4]; intravenous at 20 mg/kg) of the same molecule?
**A.** Its value is “approximately 2 hours”.

**Q.** And the “time of peak plasma concentration” value ([4]; oral at 200 mg/kg (sentence also lists oral at 100 mg/kg))?
**A.** Its value is “approximately 4 hours”.

**Q.** And the “Ly6G level / number of neutrophils in the pancreas” value [5]?
**A.** The value was “not elevated”.

**Q.** And the injury score [5]?
**A.** The injury score was “completely prevented injury”.

**Q.** What about the “pancreatic tissue damage (histology)” value [5] of the same molecule?
**A.** Its value is “prevented; also recorded: no tissue damage”.

**Q.** What about the “Ly6G level / number of neutrophils in the pancreas” value [5, 6] of the same molecule?
**A.** The value was “completely normal Ly6G level”.
